Reference: PubChem BioAssay AID248 (DTP/NCI, 2004)
Several values for one entry are separate records, joined by “and”; a condition that tells them apart may be missing. Identical values can stand only once. Toxic doses and inconclusive results are not listed. No stated cut-off is given here; in the data, active means T/C of 150% or more; inactive means T/C below 125%.

System: L1210 leukemia ip in BDF1 mice, survival T/C
Experiment: NCI In Vivo Anticancer Drug Screen. Data for tumor model L1210 Leukemia (intraperitoneal) in B6D2F1 (BDF1) mice
Conditions: endpoint: mean survival time, higher = longer survival
In short: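 Each compound was tested against a transplantable tumor grown in mice. The endpoint was survival, with treated animals benchmarked against vehicle controls as a simple ratio.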

[1] = dose: 100.0 mg/kg/injection, schedule: Q01DX009 (ip), vehicle: saline
[2] = dose: 100.0 mg/kg/injection, schedule: Q04DX003 (ip), vehicle: saline
[3] = dose: 200.0 mg/kg/injection, schedule: Q01DX009 (ip), vehicle: saline
[4] = dose: 200.0 mg/kg/injection, schedule: Q04DX003 (ip), vehicle: saline
[5] = dose: 100.0 mg/kg/injection, schedule: Q04DX003 (ip), vehicle: Klucel (hydroxypropylcellulose) (HPC)
[6] = dose: 200.0 mg/kg/injection, schedule: Q04DX003 (ip), vehicle: Klucel (hydroxypropylcellulose) (HPC)
[7] = dose: 400.0 mg/kg/injection, schedule: Q04DX003 (ip), vehicle: Klucel (hydroxypropylcellulose) (HPC)
[8] = dose: 100.0 mg/kg/injection, schedule: Q01DX009 (ip), vehicle: saline with Tween-80
[9] = dose: 100.0 mg/kg/injection, schedule: Q04DX003 (ip), vehicle: saline with Tween-80
[10] = dose: 200.0 mg/kg/injection, schedule: Q01DX009 (ip), vehicle: saline with Tween-80
[11] = dose: 200.0 mg/kg/injection, schedule: Q04DX003 (ip), vehicle: saline with Tween-80
[12] = dose: 400.0 mg/kg/injection, schedule: Q01DX009 (ip), vehicle: saline with Tween-80
[13] = dose: 400.0 mg/kg/injection, schedule: Q04DX003 (ip), vehicle: saline with Tween-80
[14] = dose: 100.0 mg/kg/injection, schedule: Q01DX009 (ip), vehicle: Klucel (hydroxypropylcellulose) (HPC)
[15] = dose: 200.0 mg/kg/injection, schedule: Q01DX009 (ip), vehicle: Klucel (hydroxypropylcellulose) (HPC)
[16] = dose: 100.0 mg/kg/injection, schedule: Q01DX001 (ip), vehicle: saline with Tween-80
[17] = dose: 200.0 mg/kg/injection, schedule: Q01DX001 (ip), vehicle: saline with Tween-80
[18] = dose: 400.0 mg/kg/injection, schedule: Q01DX001 (ip), vehicle: saline with Tween-80
[19] = dose: 100.0 mg/kg/injection, schedule: Q01DX001 (ip), vehicle: saline
[20] = dose: 200.0 mg/kg/injection, schedule: Q01DX001 (ip), vehicle: saline

Measured: T/C

CC12CC3CC(C1)CC(C(=O)O)(C3)C2
inactive: [1] 110 % of control | [2] 97 % of control | [3] 100 % of control | [4] 97 % of control | dose: 400.0 mg/kg/injection, schedule: Q04DX003 (ip), vehicle: saline 101 % of control

COc1ccc(OC)c(NC(=O)Nc2ccccc2C(N)=O)c1
inactive: [5] 97 % of control | [6] 95 % of control | [7] 93 % of control

CC(=O)n1cc(C2CC(=O)OC3=C2C(=O)CCC3)c2ccccc21 (centres undefined)
inactive: [8] 93 % of control | [9] 89 % of control | [10] 93 % of control | [11] 89 % of control | [12] 97 % of control | [13] 91 % of control

COC(=O)C(Br)C(C)OC (centres undefined)
inactive: [1] 96 % of control | [3] 101 % of control

CC1(C(=O)c2ccccc2)OC1c1ccccc1 (centres undefined)
inactive: [14] 98 % of control | [15] 104 % of control | dose: 400.0 mg/kg/injection, schedule: Q01DX009 (ip), vehicle: Klucel (hydroxypropylcellulose) (HPC) 103 % of control

CC1([N+](=O)[O-])COP(=O)(NCc2ccncc2)OC1 (centres undefined)
inactive: dose: 50.0 mg/kg/injection, schedule: Q01DX001 (ip), vehicle: carboxymethylcellulose (CMC) 107 % of control | dose: 100.0 mg/kg/injection, schedule: Q01DX001 (ip), vehicle: carboxymethylcellulose (CMC) 104 % of control | dose: 200.0 mg/kg/injection, schedule: Q01DX001 (ip), vehicle: carboxymethylcellulose (CMC) 104 % of control | dose: 400.0 mg/kg/injection, schedule: Q01DX001 (ip), vehicle: carboxymethylcellulose (CMC) 109 % of control

C1CN2CCN1CC2.[Cl][Ni+][Cl]
inactive: dose: 1.56 mg/kg/injection, schedule: Q01DX009 (ip), vehicle: saline 101 % of control | dose: 2.0 mg/kg/injection, schedule: Q04DX003 (ip), vehicle: saline 109 % of control | dose: 3.12 mg/kg/injection, schedule: Q01DX009 (ip), vehicle: saline 101 % of control | dose: 4.0 mg/kg/injection, schedule: Q04DX003 (ip), vehicle: saline 106 % of control | dose: 6.25 mg/kg/injection, schedule: Q01DX009 (ip), vehicle: saline 94 % of control | dose: 8.0 mg/kg/injection, schedule: Q04DX003 (ip), vehicle: saline 97 % of control | dose: 12.5 mg/kg/injection, schedule: Q01DX009 (ip), vehicle: saline 92 % of control | dose: 16.0 mg/kg/injection, schedule: Q04DX003 (ip), vehicle: saline 105 % of control

O=C(O)c1ccccc1C(=O)OC1CC2CCC1CC2 (centres undefined)
inactive: [16] 98 % of control | [17] 104 % of control | [18] 100 % of control

CC(=O)OC1CCC2(C)C(CCC3C2CCC2(C)C3CC(OC(C)=O)C2C(C)C2=NCC(C)CC2)C1 (centres undefined)
inactive: [5] 94 % of control | [6] 98 % of control | [7] 105 % of control

CCCCCCCCCCCCCCCCOC(=O)Cl
inactive: dose: 100.0 mg/kg/injection, schedule: Q01DX001 (ip), vehicle: other 98 % of control | dose: 200.0 mg/kg/injection, schedule: Q01DX001 (ip), vehicle: other 90 % of control | dose: 400.0 mg/kg/injection, schedule: Q01DX001 (ip), vehicle: other 106 % of control

C=C(c1ccccc1)[P+](c1ccccc1)(c1ccccc1)c1ccccc1
inactive: dose: 15.0 mg/kg/injection, schedule: Q01DX001 (ip), vehicle: saline 109 % of control

N#CCCC1CCCCC1=O (centres undefined)
inactive: dose: 75.0 mg/kg/injection, schedule: Q01DX001 (ip), vehicle: other 97 % of control | [8] 94 % of control | [9] 98 % of control | dose: 150.0 mg/kg/injection, schedule: Q01DX001 (ip), vehicle: other 100 % of control | [10] 96 % of control | [11] 96 % of control | dose: 300.0 mg/kg/injection, schedule: Q01DX001 (ip), vehicle: other 100 % of control | [13] 102 % of control

CSc1ccc(Sc2cccc3c2C(=O)c2c(cccc2Sc2ccc(SC)cc2)C3)cc1
inactive: [8] 90 % of control | [10] 92 % of control | [12] 103 % of control

ClC(Cl)=C1C(Cl)=C(Cl)C(Cl)=C1Cl
inactive: dose: 50.0 mg/kg/injection, schedule: Q01DX009 (ip), vehicle: Klucel (hydroxypropylcellulose) (HPC) 97 % of control | dose: 50.0 mg/kg/injection, schedule: Q04DX003 (ip), vehicle: Klucel (hydroxypropylcellulose) (HPC) 96 % of control | [14] 100 % of control | [5] 96 % of control | [15] 94 % of control | [6] 93 % of control

CS/C(N)=N\C(=S)Nc1ccccc1
inactive: [9] 95 % of control | [11] 97 % of control | [13] 101 % of control

CCOC(=O)CNC(=O)Oc1cccc2cccnc12
inactive: [8] 103 % of control | [10] 101 % of control

O=C1CCCC1C(=O)Nc1cccc2ccccc12 (centres undefined)
inactive: dose: 50.0 mg/kg/injection, schedule: Q01DX001 (ip), vehicle: saline 97 % of control | [19] 103 % of control | [20] 97 % of control | dose: 400.0 mg/kg/injection, schedule: Q01DX001 (ip), vehicle: saline 97 % of control

C1CCC2C(C1)CCC1OC12 (centres undefined)
inactive: [1] 112 % of control | [3] 102 % of control | dose: 400.0 mg/kg/injection, schedule: Q01DX009 (ip), vehicle: saline 107 % of control

COC(=O)COc1ccc2ccccc2c1Cl
inactive: dose: 100.0 mg/kg/injection, schedule: Q04DX002 (ip), vehicle: Klucel (hydroxypropylcellulose) (HPC) 86 % of control | dose: 200.0 mg/kg/injection, schedule: Q04DX002 (ip), vehicle: Klucel (hydroxypropylcellulose) (HPC) 99 % of control | dose: 400.0 mg/kg/injection, schedule: Q04DX002 (ip), vehicle: Klucel (hydroxypropylcellulose) (HPC) 96 % of control

CCCCCCCCC(CCCC1CCCC1)CCCC1CCCC1
inactive: [16] 98 % of control | [17] 94 % of control | [18] 96 % of control

CCSC(=O)CC
inactive: [9] 104 % of control | [11] 100 % of control | [13] 95 % of control

O=[N+]([O-])c1ccc(OS(=O)(=O)CS(=O)(=O)Oc2ccc([N+](=O)[O-])cc2)cc1
inactive: [19] 109 % of control | [20] 114 % of control

O=C(O)CC/C(=N/OCc1cc2c(cc1Cl)OCO2)C(=O)O
inactive: dose: 100.0 mg/kg/injection, schedule: Q04DX003 (ip), vehicle: saline sonified 108 % of control | dose: 200.0 mg/kg/injection, schedule: Q04DX003 (ip), vehicle: saline sonified 93 % of control | dose: 400.0 mg/kg/injection, schedule: Q04DX003 (ip), vehicle: saline sonified 91 % of control

S=C(Nc1ccccc1)NC1CCCCCC1
inactive: dose: 50.0 mg/kg/injection, schedule: Q01DX009 (ip), vehicle: saline with Tween-80 98 % of control and 92 % of control | [8] 94 % of control | [2] 97 % of control | [10] 90 % of control | [4] 94 % of control
